# According to patent US20200008426A1, “ACTIVE COMPOUND COMBINATIONS” (BAYER AKTIENGESELLSCHAFT, priority 2017, published 2020):
# Assay: LogP by HPLC on reversed phase columns (EEC directive 79/831 Annex V.A8)
# Conditions: Table 1, formula (I); LC-UV, acidic range, 0.1% formic acid in water and acetonitrile
# Method: Measurement of LogP values was performed according to EEC directive 79/831 Annex V.A8 by HPLC (High Performance Liquid Chromatography) on reversed phase columns with the following methods:
# Lambda-max-values were determined using UV-spectra from 200 nm to 400 nm and the peak values of the chromatographic signals.
row,Compound,LogP [a]
1,OC(Cn1cncn1)c1cnc(Oc2ccc(Cl)cc2F)cc1C(F)(F)F (stereo not shown) [I.57],2.86^[a]
2,OC(Cn1cncn1)c1ccc(Oc2ccc(F)cc2F)nc1Cl (stereo not shown) [I.18],2.18^[a]
3,"CC(O)(Cn1cncn1)c1ccc(Oc2ccc(Cl)cc2)nc1Cl (single isomer, unassigned) [I.52]",2.62^[a]
4,Cc1cc(Cl)ccc1Oc1ccc(C(C)(O)Cn2cncn2)c(Cl)n1 (stereo not shown) [I.28],2.94^[a]
5,CC(O)(Cn1cncn1)c1cnc(Oc2ccc(S(F)(F)(F)(F)F)cc2)cc1C(F)(F)F (stereo not shown) [I.37],3.33^[a]
6,"CC(O)(Cn1cncn1)c1ccc(Oc2ccc(Br)cc2)nc1C(F)(F)F (single isomer, unassigned) [I.101]",2.94^[a]
7,CC(O)c1ccc(Oc2ccc(C(O)Cn3cncn3)c(Cl)n2)cc1 (stereo not shown) [I.24],1.48^[a]
8,"OC(Cn1cncn1)c1cnc(Oc2ccc(S(F)(F)(F)(F)F)cc2)cc1C(F)(F)F (single isomer, unassigned) [I.86]",3.11^[a]
9,Cc1cc(Cl)ccc1Oc1ccc(C(O)Cn2cncn2)c(Cl)n1 (stereo not shown) [I.15],2.75^[a]
10,CCCC(O)(Cn1cncn1)c1ccc(Oc2ccc(Cl)cc2)nc1C(F)(F)F (racemic) [I.100],3.55^[a]
11,CC(O)(Cn1cncn1)c1ccc(Oc2ccc(S(F)(F)(F)(F)F)cc2)nc1C(F)(F)F (stereo not shown) [I.62],3.25^[a]
12,"OC(Cn1cncn1)(c1ccc(Oc2ccc(Br)cc2)nc1C(F)(F)F)C1CC1 (single isomer, unassigned) [I.99]",3.41^[a]
13,OC(Cn1cncn1)c1cnc(Oc2ccc(OC(F)(F)F)cc2)cc1C(F)(F)F (stereo not shown) [I.43],3.00^[a]
14,OC(Cn1cncn1)c1ccc(Oc2cc(F)c(F)c(F)c2)nc1Cl (stereo not shown) [I.20],1.65^[a]
15,"OC(Cn1cncn1)(c1ccc(Oc2ccc(Br)cc2)nc1C(F)(F)F)C1CC1 (single isomer, unassigned) [I.84]",3.41 ^[a]
16,OC(Cn1cncn1)c1ccc(Oc2ccc(C(F)F)cc2)nc1C(F)(F)F (stereo not shown) [I.74],2.49^[a]
17,CCC(O)(Cn1cncn1)c1ccc(Oc2ccc(Cl)cc2)nc1C(F)(F)F (racemic) [I.103],3.19^[a]
18,Cc1ccc(Oc2ccc(C(C)(O)Cn3cncn3)c(Cl)n2)cc1Cl (stereo not shown) [I.29],3.00^[a]
19,COc1ccc(Oc2ccc(C(O)Cn3cncn3)c(Cl)n2)c(Cl)c1 (stereo not shown) [I.30],2.32^[a]
20,OC(Cn1cncn1)(c1ccc(Oc2ccc(Br)cc2)nc1C(F)(F)F)C(F)(F)F (stereo not shown) [I.85],3.48^[a]
21,OC(Cn1cncn1)c1ncc(Oc2ccccc2)cc1Cl (stereo not shown) [I.22],2.01^[a]
22,CC(O)(Cn1cncn1)c1cnc(Oc2ccc(Cl)cc2F)cc1C(F)(F)F (stereo not shown) [I.58],3.02^[a]
23,OC(Cn1cncn1)c1ccc(Oc2ccc(Cl)c(Cl)c2)nc1Cl (stereo not shown) [I.10],2.80^[a]
24,"CC(O)(Cn1cncn1)c1ccc(Oc2ccc(Cl)cc2)nc1Cl (single isomer, unassigned) [I.51]",2.62^[a]

row,Compound,LogP [a]
1,OC(Cn1cncn1)c1cnc(Oc2ccc(C(F)(F)F)cc2)cc1C(F)(F)F (racemic) [I.47],2.84^[a]
2,OC(Cn1cncn1)(c1ccc(Oc2ccc(Cl)cc2)nc1C(F)(F)F)C1CC1 (stereo not shown) [I.80],3.32^[a]
3,OC(Cn1cncn1)(c1ccc(Oc2ccc(C(F)(F)F)cc2)nc1C(F)(F)F)C1CC1 (stereo not shown) [I.87],3.57^[a]
4,OC(Cn1cncn1)c1ccc(Oc2ccc(Br)cc2)nc1C(F)(F)F (stereo not shown) [I.40],2.82^[a]
5,CC(O)(Cn1cncn1)c1cnc(Oc2ccc(Br)cc2)cc1C(F)(F)F (stereo not shown) [I.49],2.96^[a]
6,OC(Cn1cncn1)c1cnc(Oc2ccc(Cl)cc2)cc1Cl (stereo not shown) [I.68],2.48^[a]
7,C=CC(O)(Cn1cncn1)c1cnc(Oc2ccc(C(F)(F)F)cc2)cc1C(F)(F)F (stereo not shown) [I.69],3.33^[a]
8,"CC(O)(Cn1cncn1)c1cnc(Oc2ccc(Cl)cc2)cc1C(F)(F)F (single isomer, unassigned) [I.45]",2.84^[a]
9,OC(Cn1cncn1)c1ccc(Oc2ccc(Cl)cc2)nc1Cl (stereo not shown) [I.14],2.42^[a]
10,OC(Cn1cncn1)c1ccc(Oc2ccc(F)cc2)nc1Cl (stereo not shown) [I.17],2.08^[a]
11,CC(O)(Cn1cncn1)c1ccc(Oc2ccc(F)cc2)nc1Oc1ccc(F)cc1 (stereo not shown) [I.77],3.13^[a]
12,"CC(O)(Cn1cncn1)c1cnc(Oc2ccc(Cl)cc2)cc1Cl (single isomer, unassigned) [I.54]",2.53^[a]
13,OC(Cn1cncn1)(c1ccc(Oc2ccc(Cl)cc2)nc1C(F)(F)F)C1CC1 (stereo not shown) [I.71],3.35^[a]
14,OC(Cn1cncn1)c1ccc(Oc2ccc(Cl)cc2Cl)nc1Cl (stereo not shown) [I.23],2.75^[a]
15,"CC(O)(Cn1cncn1)c1cnc(Oc2ccc(Cl)cc2)cc1C(F)(F)F (single isomer, unassigned) [I.46]",2.93^[a]
16,OC(Cn1cncn1)c1cnc(Oc2ccc(Br)cc2)cc1C(F)F (stereo not shown) [I.63],2.59^[a]
17,CC(O)(Cn1cncn1)c1ccc(Oc2ccc(Cl)cc2)nc1Cl (racemic) [I.09],2.66^[a]
18,Cc1ccc(Oc2ccc(C(O)Cn3cncn3)c(Cl)n2)cc1Cl (stereo not shown) [I.16],2.73^[a]
19,OC(Cn1cncn1)c1ccc(Oc2ccc(Cl)cc2)nc1OC(F)(F)F (stereo not shown) [I.26],2.92^[a]
20,CC(O)(Cn1cncn1)c1ccc(Oc2ccc(Cl)cc2F)nc1C(F)(F)F (stereo not shown) [I.66],2.80^[a]
21,OC(Cn1cncn1)(c1ccc(Oc2ccc(S(F)(F)(F)(F)F)cc2)nc1C(F)(F)F)C1CC1 (racemic) [I.97],3.80^[a]
22,OC(Cn1cncn1)c1cnc(Oc2ccc(C(F)F)cc2)cc1C(F)(F)F (stereo not shown) [I.55],2.55^[a]
23,OC(Cn1cncn1)c1ccc(Oc2ccc(Cl)cc2)nc1F (stereo not shown) [I.41],2.23^[a]

# Same assay, conditions: Table 2, formula (V); LC-UV, acidic range, 0.1% formic acid in water and acetonitrile
row,Compound,LogP [a]
1,CC(=O)c1ccc(Oc2ccc(OC(F)(F)F)cc2)nc1Cl [V.28],3.89^[a]
2,CC(=O)c1ccc(Oc2ccc(Cl)cc2)nc1Cl [V.26],3.45^[a]
3,CC(=O)c1ccc(Oc2ccc(Cl)cc2)nc1Cl [V.10],3.47
4,CC(=O)c1cnc(Oc2ccc(Cl)cc2)cc1Cl [V.22],3.51^[a]
5,CC(=O)c1cnc(Oc2ccc(C(F)(F)F)cc2)cc1Cl [V.18],3.87^[a]
6,CC(=O)c1ccc(Oc2ccccc2)nc1Cl [V.21],2.94
7,CC(=O)c1ccc(Oc2ccc(F)cc2)nc1Cl [V.12],3.11^[a]
8,CC(=O)c1ccc(Oc2ccc(S(F)(F)(F)(F)F)cc2)nc1C(F)(F)F [V.16],4.09^[a]
9,CC(=O)c1cnc(Oc2ccc(S(F)(F)(F)(F)F)cc2)cc1C(F)(F)F [V.03],4.32^[a]
10,CC(=O)c1ccc(Oc2ccc(Cl)cc2)nc1F [V.24],3.51^[a]
11,CC(=O)c1ccc(Oc2ccc(S(F)(F)(F)(F)F)cc2)nc1Cl [V.30],3.99^[a]
12,CC(=O)c1cnc(Oc2ccc(C(F)F)cc2)cc1C(F)(F)F [V.04],3.62^[a]
13,CC(=O)c1ccc(Oc2ccc(C(F)(F)F)cc2)nc1C(F)(F)F [V.17],3.96^[a]
14,CC(=O)c1cnc(Oc2ccc(Cl)cc2F)cc1C(F)(F)F [V.07],4.09^[a]

# Same assay, conditions: Table 2, formula (V); LC-UV, neutral range, 0.001 molar ammonium acetate in water and acetonitrile
row,Compound,LogP [b]
1,CC(=O)c1ccc(Oc2ccc(Cl)cc2)nc1Cl [V.10],3.36
2,CC(=O)c1ccc(Oc2ccccc2)nc1Cl [V.21],2.85

# Same assay, conditions: reversed-phase HPLC column
row,Compound,chromatographic logP
1,"OC(Cn1cncn1)(c1ccc(Oc2ccc(Br)cc2)nc1C(F)(F)F)C1CC1 (stereo not shown) [I.81, 1-[6-(4-bromophenoxy)-2-(trifluoromethyl)pyridin-3-yl]-1-cyclopropyl-2-(1H-1,2,4-triazol-1-yl)ethanol]",3.7
